Patent publication US9469650B2, “Melampomagnolide B derivatives” (BOARD OF TRUSTEES OF THE UNIVERSITY OF ARKANSAS, priority 2013, dated 2016)

Key:
[1] = test system: CCRF-CEM
[2] = test system: K-562
[3] = test system: MOLT-4
[4] = test system: SR
[5] = test system: A549/ATCC
[6] = test system: HOP-62
[7] = test system: HOP-92
[8] = test system: NCI-H23
[9] = test system: NCI-H322M
[10] = test system: NCI-H460
[11] = test system: NCI-H522
[12] = test system: HCC-2998
[13] = test system: HCT-15
[14] = test system: SW-620
[15] = test system: SF-268
[16] = test system: SF-295
[17] = test system: SNB-19
[18] = test system: SNB-75
[19] = test system: U251
[20] = test system: LOX IMVI
[21] = test system: MALME-3M
[22] = test system: M14
[23] = test system: MDA-MB-435
[24] = test system: SK-MEL-2
[25] = test system: SK-MEL-28
[26] = test system: SK-MEL-5
[27] = test system: UACC-257
[28] = test system: UACC-62
[29] = test system: IGROV1
[30] = test system: OVCAR-5
[31] = test system: OVCAR-8
[32] = test system: SK-OV-3
[33] = test system: 786-0
[34] = test system: A498
[35] = test system: SN12C
[36] = test system: TK-10
[37] = test system: UO-31
[38] = test system: PC-3
[39] = test system: DU-145
[40] = test system: MCF7
[41] = test system: MDA-MB-231/ATCC
[42] = test system: HS 578T
[43] = test system: BT-549
[44] = test system: MALME-3M; experiment: panel of 60 human tumor cell lines, growth inhibition (Melanoma); settings: MALME-3M; for GI50 / TGI: NCI five dose
[45] = test system: RPMI-8226; experiment: panel of 60 human tumor cell lines, growth inhibition (Leukemia); settings: RPMI-8226; for GI50 / TGI: NCI five dose

Structure (SMILES): C=C1C(=O)O[C@H]2[C@H]1CC/C(COC(=O)NCCO)=C\CC[C@@]1(C)O[C@@H]21 [JVM 2-50]
- CC50 [1]: > 100 µM
- CC50 [2]: > 100 µM
- CC50 [3]: > 100 µM
- CC50 [4]: > 100 µM
- CC50 [5]: > 100 µM
- CC50 [6]: > 100 µM
- CC50 [7]: 42.3 µM
- CC50 [8]: 94.3 µM
- CC50 [9]: > 100 µM
- CC50 [10]: > 100 µM
- CC50 [11]: 9.13 µM
- CC50 [12]: 77.2 µM
- CC50 [13]: 57.5 µM
- CC50 [14]: 74 µM
- CC50 [15]: 99.1 µM
- CC50 [16]: > 100 µM
- CC50 [17]: > 100 µM
- CC50 [18]: > 100 µM
- CC50 [19]: > 100 µM
- CC50 [20]: 57.1 µM
- CC50 [21]: 73.3 µM
- CC50 [22]: 88.3 µM
- CC50 [23]: 52 µM
- CC50 [24]: 94.4 µM
- CC50 [25]: 79.4 µM
- CC50 [26]: > 100 µM
- CC50 [27]: 63.5 µM
- CC50 [28]: 58.3 µM
- CC50 [29]: > 100 µM
- CC50 [30]: 92.4 µM
- CC50 [31]: > 100 µM
- CC50 [32]: > 100 µM
- CC50 [33]: 66.4 µM
- CC50 [34]: > 100 µM
- CC50 [35]: > 100 µM
- CC50 [36]: 52.3 µM
- CC50 [37]: 77.1 µM
- CC50 [38]: > 100 µM
- CC50 [39]: 52.8 µM
- CC50 [40]: 75.5 µM
- CC50 [41]: 75.5 µM
- CC50 [42]: > 100 µM
- CC50 [43]: 42.9 µM
- Percent Growth ([44]; Log10 Concentration −4.0): −67%
- Percent Growth ([44]; Log10 Concentration −5.0): 58%
- Percent Growth ([44]; Log10 Concentration −6.0): 110%
- Percent Growth ([44]; Log10 Concentration −7.0): 111%
- Percent Growth ([44]; Log10 Concentration −8.0): 107%
- GI50 [44]: 11.5 µM
- TGI [44]: 2.91E−5
- Percent Growth ([45]; Log10 Concentration −4.0): −49%
- Percent Growth ([45]; Log10 Concentration −5.0): 33%
- Percent Growth ([45]; Log10 Concentration −6.0): 93%
- Percent Growth ([45]; Log10 Concentration −7.0): 97%
- Percent Growth ([45]; Log10 Concentration −8.0): 98%
- GI50 [45]: 5.14 µM
- TGI [45]: 2.51E−5

Structure (SMILES): C=C1C(=O)O[C@H]2[C@H]1CC/C(COC(=O)NC)=C\CC[C@@]1(C)O[C@@H]21 [JVM 2-57]
- CC50 [1]: 76.3 µM
- CC50 [2]: > 100 µM
- CC50 [3]: > 100 µM
- CC50 [4]: > 100 µM
- CC50 [5]: 57.7 µM
- CC50 [6]: 59.5 µM
- CC50 [7]: 29.7 µM
- CC50 [8]: 66.1 µM
- CC50 [9]: > 100 µM
- CC50 [10]: 78 µM
- CC50 [11]: 6.85 µM
- CC50 [12]: 61.6 µM
- CC50 [13]: 41.8 µM
- CC50 [14]: 44.7 µM
- CC50 [15]: 68.6 µM
- CC50 [16]: > 100 µM
- CC50 [17]: > 100 µM
- CC50 [18]: > 100 µM
- CC50 [19]: 53 µM
- CC50 [20]: 43.2 µM
- CC50 [21]: 55 µM
- CC50 [22]: 66.7 µM
- CC50 [23]: 53.1 µM
- CC50 [24]: 69 µM
- CC50 [25]: 52 µM
- CC50 [26]: 66 µM
- CC50 [27]: 44.1 µM
- CC50 [28]: 50.5 µM
- CC50 [29]: 77 µM
- CC50 [30]: 44.3 µM
- CC50 [31]: 57.2 µM
- CC50 [32]: > 100 µM
- CC50 [33]: 49.6 µM
- CC50 [34]: 47.4 µM
- CC50 [35]: 78.1 µM
- CC50 [36]: 31.8 µM
- CC50 [37]: 36.9 µM
- CC50 [38]: 71.1 µM
- CC50 [39]: 39.3 µM
- CC50 [40]: 47.7 µM
- CC50 [41]: 56.2 µM
- CC50 [42]: > 100 µM
- CC50 [43]: 33.1 µM
- Percent Growth ([44]; Log10 Concentration −4.0): −76%
- Percent Growth ([44]; Log10 Concentration −5.0): 25%
- Percent Growth ([44]; Log10 Concentration −6.0): 94%
- Percent Growth ([44]; Log10 Concentration −7.0): 95%
- Percent Growth ([44]; Log10 Concentration −8.0): 95%
- GI50 [44]: 4.38 µM
- TGI [44]: 1.77E−5
- Percent Growth ([45]; Log10 Concentration −4.0): −53%
- Percent Growth ([45]; Log10 Concentration −5.0): 7%
- Percent Growth ([45]; Log10 Concentration −6.0): 87%
- Percent Growth ([45]; Log10 Concentration −7.0): 94%
- Percent Growth ([45]; Log10 Concentration −8.0): 101%
- GI50 [45]: 2.89 µM
- TGI [45]: 1.30E−5
